In patent publication US10987316B2, “Compositions and methods for transdermal delivery of tertiary amine drugs” (priority 2013, dated 2021):

Assay: In vitro flux of rivastigmine liquid across human skin only
Assay type: in vitro ADME
Details: rivastigmine liquid infinite dose 0.5 ml/cm^2
Experimental: The flux of rivatsigmine liquid (“infinite-dose” of 0.5 ml/cm^2) across systems prepared using different rate controlling membranes (with different vinyl acetate contents and different thicknesses) with or without a 5 mg/cm^2 silicone face adhesive was assessed in an in vitro flux study, as shown below.

With `CCN(C)C(=O)Oc1cccc([C@H](C)N(C)C)c1` [Rivastigmine, (S)-3-[1-(dimethylamino)ethyl]phenyl ethylmethylcarbamate] the “Rivastigmine steady-state flux, human skin only” value was 32 ± 14 μg/cm^2/hr.
